Experimental data published in patent publication US8735443B2, “Method of treating diabetes-related vascular complications” (Kuwait University, priority 2008, dated 2014).

Assays:
NAD(P)H oxidase = NAD(P)H oxidase activity in aortic homogenates (lucigenin photoemission); type: biochemical, rat; conditions: GK rats after LA therapy
Description: Determination of NAD(P)H oxidase activity in the aorta was determined based on superoxide induced lucigenin photoemission. Enzyme assays were carried out in a final volume of 1 ml. containing (in mM) 50 phosphate buffer; pH 7.0, 1 EGTA, 150 sucrose, 0.5 lucigenin, 0.1 NAD(P)H and tissue homogenate. Enzyme reactions were initiated with the addition of lucigenin. Photoemission, expressed in terms of relative light units (RLU), was measured every 5 min. using a luminometer. All assays were carried out in the dark at room temperature.

[1] = test system: control fibroblasts (CFs); assay: Cell viability after hydrogen peroxide (Cell Counting Kit-8), control fibroblasts; type: cell-based, rat; conditions: lipoic acid 500 μM, Nrf2-dependent
Text: (§1) To determine the effect of α-lipoic acid on isolated cells from normal and diabetic rats, primary rat fibroblasts were derived from dorsal skin biopsies performed on four diabetic Coto Kakizaki rats (DFs) and four age-matched (12-14 months) and sex-matched (female) Wistar control rats (CFs). After sterilization in povidine solution, the rat skin was washed in sterile water and rinsed in 70% ethanol in phosphate-buffered saline (PBS). The epidermis and dermis were separated following overnight incubation in 0.25% Trypsin/EDTA at 4° C. Samples were washed, diced and digested for thirty minutes at 37° C. in collagenase type I (250 U/ml) dissolved in Dulbecco's modified Eagle medium (DMEM; Invitrogen) containing penicillin (100 U/ml), 2 mM L-glutamine and 26 mM HEPES. After collagenase treatment, the cells were dislodged, centrifuged and resuspended in medium supplemented with 10% fetal bovine serum. The cells were grown under standard conditions, and the medium was changed every three to four days. Control and diabetic fibroblasts were grown under normo-glycemic conditions (5.5 mM glucose) and used in experiments at passage 3 to 5.
Fibroblasts were seeded at 1×10^4 cells/well on a 96-well plate. […] Quantification of cell viability was assessed using a Cell Counting Kit-8 (Dojindo, Kumamoto, Japan). […]

TNF-α = assay: Plasma TNF-α ELISA; type: in vivo, rat; conditions: GK rats, LA chronic therapy
Description: Plasma TNF-α levels from various experimental groups were determined using a rat TNF-α ELISA kit, and tissue protein content was determined using bovine serum albumin as a standard.

rat aortic rings = assay: Acetylcholine-induced endothelium dependent relaxation of aortic rings in organ chamber; type: in vivo; conditions: GK diabetic rats
Description: In the experiments, with regard to the determination of endothelium dependent relaxation (EDR) in the aorta, EDR in response to various concentrations of acetylcholine (Ach) (10^−9 to 10^−6 mol/l) was assessed in norepinephrine (10^−7 mol/l) preconstructed rat aortic rings using an organ chamber bath. The effects of the NAD(P)H oxidase inhibitor apocynin (3×10^−4 mol/l) and the O2^− scavenger Tiron (10 mmol/l) on Ach-induced responses of diabetic arteries were also considered.

aortic tissues = assay: Apoptotic cell death ELISA, cytoplasmic histone-associated DNA fragments in aorta; type: in vivo, rat
Description: With regard to the assessment of apoptotic cell death using enzyme-linked immuno-absorbent-based assay, aortic tissues derived from control, GK and LA-treated GK rats were lysed and cytoplasmic histone-associated DNA fragments, indicating apoptotic cell death were determined by the Cell Death ELISA® plus kit. Data are reported as arbitrary optical density units normalized to protein concentration.

aortic tissue = assay: Aortic superoxide production, lucigenin-enhanced chemiluminescence; type: in vivo, rat; conditions: GK rats, LA 50 mg/kg i.p. daily for four weeks
Description: In the study, with regard to measurement of vascular superoxide anion formation, O2^− concentration in aortic tissue was determined using a lucigenin-enhanced chemiluminescence method, and the resulting data were further confirmed by a cytochrome c-based technique. Segments of the thoracic aorta were placed into 2 ml Krebs-Henseleit buffer (KHB, pH 7.4), and prewarmed to 37° C. for one hour. Immediately before measurement, rings were transferred to scintillation vials containing KHB with 5 μmol/L lucigenin and the O2^− generated chemiluminescence was recorded for five minutes with a scintillation counter. The amount of O2^− produced was quantified using a standard curve of O2^− generation by xanthine/xanthine oxidase and the data are expressed as nmol per min, per mg, of wet weight. In some experiments, vessels were denuded of endothelium by gentle rubbing of the luminal surface, whereas in others, N^ω-nitro-L-arginine methyl ester (L-NAME) 0.1 mM, diphenylene iodonium 0.1 mM, or apocynin 3 mM were added 60 min before determining O2^− generation.

diabetic fibroblasts = assay: Inflammatory cytokine transcription in fibroblasts, RT-PCR; type: cell-based, rat; conditions: lipoic acid 500 μM, Nrf2-dependent
Text: as §1, with “The cells were grown under standard conditions, and the medium was changed every three to four days. Control and diabetic fibroblasts were grown under normo-glycemic conditions (5.5 mM glucose) and used in experiments at passage 3 to 5.” left out
With regard to cytokine transcription levels, Total RNA was isolated from cultured fibroblasts using Trizol reagent (Invitrogen) and 1 μg from each sample was reverse transcribed for 1 hr at 37° C. using the High Capacity cDNA Reverse Transcription Kit. Real-time quantitative RT-PCR was performed with the TaqMan Gene Expression Assay and was normalized against […] using an ABI 7900 Real-time PCR System (Applied Biosystems). […]

For O=C(O)CCCCC1CCSS1 (stereo not drawn) [LA, alpha-lipoic acid], the “NAD(P)H oxidase driven O2− generation in homogenates of diabetic aorta” value (NAD(P)H oxidase) was “significantly attenuated”, the “protection of cell viability from hydrogen peroxide” value [1] was “protected” and the “diabetes related up-regulation of TNF-α protein (plasma)” value (TNF-α) was “Reversal”. The “decline in acetylcholine (Ach)-induced relaxation of rat aorta” value (rat aortic rings; LA 50 mg/kg i.p. daily for four weeks) was “ameliorated”, the “beneficial effect on Ach-induced relaxation after discontinuation” value (rat aortic rings; two weeks after discontinuation of LA) was “not evident” and the “reduction of DNA fragmentation rate in diabetic arteries” value (aortic tissues; chronic LA treatment, GK rats) was 42%. The “LA-mediated antiapoptotic effect after discontinuation” value (aortic tissues; two weeks after discontinuation of therapy) was “markedly reduced”, the “diabetes-mediated increase in aortic superoxide production” value (aortic tissue) was “suppression” and the “transcription of inflammatory cytokines in diabetic fibroblasts” value (diabetic fibroblasts) was “decreases”.
